From patent US8013006B2 come the findings set out here.

Read-outs that look alike come from different tables or passages of the source.

For the assay, the system named is HCV replicon. The assay is described as follows: microbe, parasite or virus in culture. Type of assay: cell-based.
Setting [1] is: Replicon IC50 values are determined by firefly luciferase signal, bicistronic replicon, 2 days, read-out: Replicon IC5Os.
[2] abbreviates: Hepatitis C virus, 48 h, read-out: Replicon IC5Os.
The mark [3] stands for this setting: bicistronic HCV replicon, determined by firefly luciferase signal, cells cultured with compound for 2 days, read-out: Replicon IC5Os.
The mark [4] stands for this setting: Hepatitis C virus, 48 h, read-out: Replicon IC5Os μM.

For `N#Cc1c(-c2ccc(NS(=O)(=O)CCCCl)cc2)n(CC2CC2)c2cc(OC(F)F)ccc12` [Compound 683], under setting [1], the IC50 was in the range of 0.5 to 2 µM.
Still for that read-out and setting: the value for `CCS(=O)(=O)N(C)c1ccc(-c2c(C#N)c3ccc(OC)cc3n2C(C)C)cc1` [Compound 684] was > 2 µM; that for `CCCn1c(-c2ccc(N(C)S(=O)(=O)CC)cc2)c(C#N)c2ccc(OC(F)F)cc21` [Compound 685] was 0.5 to 2 µM; that for `CCS(=O)(=O)N(C)c1ccc(-c2c(C#N)c3ccc(OC)cc3n2CC2CC2)cc1` [Compound 686] was 0.5 to 2 µM.
Same read-out and setting: under `CCS(=O)(=O)N(C)c1ccc(-c2c(C#N)c3ccc(OC(F)F)cc3n2C)cc1` [Compound 687] stands < 0.5 µM; under `COc1ccc2c(C#N)c(-c3ccc(N(C)S(C)(=O)=O)cc3)n(CC3CC3)c2c1` [Compound 688], 0.5 to 2 µM.
Same read-out and setting: under `CCS(=O)(=O)N(C)c1ccc(-c2c(C#N)c3ccc(OC)cc3n2C)cc1` [Compound 694] stands 0.5 to 2 µM; under `CCCn1c(-c2ccc(N(C)S(C)(=O)=O)cc2)c(C#N)c2ccc(OC)cc21` [Compound 695], 0.5 to 2 µM; under `COc1ccc2c(C#N)c(-c3ccc(N(C)S(C)(=O)=O)cc3)n(C(C)C)c2c1` [Compound 696], 0.5 to 2 µM.
With `CCn1c(-c2ccc(N(C)S(=O)(=O)CCN3CCCC3)cc2)c(C#N)c2ccc(OC)cc21` [Compound 697], under setting [2], the IC50 was < 0.5 µM.
On the same count and under the same terms, under `CCn1c(-c2ccc(N(C)S(=O)(=O)CCN3CCSCC3)cc2)c(C#N)c2ccc(OC)cc21` [Compound 698] stands 0.5 to 2 µM.
For the compound `CCCS(=O)(=O)N1CCc2cc(-c3c(C#N)c4ccc(OC)cc4n3CC)ccc21` [Compound 703], under setting [1], the IC50 was 0.5 to 2 µM.
Same read-out and setting: under `CCn1c(-c2cccc(NS(=O)(=O)NCCCl)c2)c(C#N)c2ccc(OC)cc21` [Compound 704] stands > 2 µM; under `CCn1c(-c2cccc(N3CCNS3(=O)=O)c2)c(C#N)c2ccc(OC)cc21` [Compound 705], > 2 µM; under `CCCCn1c(-c2ccc(NS(=O)(=O)CCC)cc2)c(C#N)c2ccc(OC)cc21` [Compound 708], 0.5 to 2 µM.
The same measure, in the same setting: the value for `CCn1c(-c2ccc3[nH]ccc3c2)c(C#N)c2ccc(OC)cc21` [Compound 712] was > 2 µM.
On the same count and under the same terms, under `N#Cc1cn(CC2CC2)c2cc(OC(F)(F)F)ccc12` [Compound 714] stands 0.5 to 2 µM; under `CCn1c(-c2ccc(NS(C)(=O)=O)cc2)c(C#N)c2ccc(OC(F)(F)F)cc21` [Compound 715], < 0.5 µM.
On to `COc1ccc2c(C#N)c(-c3ccc(N4CCCS4(=O)=O)cc3)n(CC3CC3)c2c1` [Compound 716, 2-[4-(1,1-dioxidoisothiazolidin-2-yl)phenyl]-1-cyclopropylmethyl-6-methoxy-1H-indole-3-carbonitrile], for which, under setting [2], the IC50 was 0.5 to 2 µM.
Consider `COc1ccc2c(C#N)c(-c3ccc(S(=O)(=O)NC4CC4)cc3)n(CC3CCCC3)c2c1` [Compound 718], for which the IC50 under setting [1] lay in the range of 0.5 to 2 µM.
Still for that read-out and setting: the value for `COc1ccc2c(C#N)c(-c3ccc(S(N)(=O)=O)cc3)n(CC3CCCC3)c2c1` [Compound 719] was > 2 µM; that for `CCn1c(-c2ccc(N3CCCS3(=O)=O)cc2)c(C#N)c2ccc(OCCN3CCCC3)cc21` [Compound 728] was < 0.5 µM.
On the same count and under the same terms, the value for `CCn1c(-c2ccc(N3CCCS3(=O)=O)cc2)c(C#N)c2ccc(OCCN3CCOCC3)cc21` [Compound 730] was < 0.5 µM; that for `N#Cc1c(-c2ccc(N)cc2)n(CC2CC2)c2cc(OC(F)F)ccc12` [Compound 733] was > 2 µM; that for `COCCOC(=O)Nc1ccc(-c2c(C#N)c3ccc(OC(F)F)cc3n2CC2CC2)cc1` [Compound 739] was > 2 µM.
Still for that read-out and setting: under `CCNC(=O)Nc1ccc(-c2c(C#N)c3ccc(OC(F)F)cc3n2CC2CC2)cc1` [Compound 740] stands 0.5 to 2 µM.
In the case of `CCOC(=O)Nc1cccc(-c2c(C#N)c3ccc(OC(F)F)cc3n2CC2CC2)c1` [Compound 745], the IC50 under setting [2] was < 0.5 µM.
For `CCCOC(=O)Nc1cccc(-c2c(C#N)c3ccc(OC(F)F)cc3n2CC2CC2)c1` [Compound 746], the IC50 under setting [1] was > 2 µM.
On the same count and under the same terms, the value for `CCCS(=O)(=O)N1CCc2ccc(-c3c(C#N)c4ccc(OC)cc4n3CC)cc21` [Compound 754] was 0.5 to 2 µM.
Regarding `CCn1c(-c2ccc(NC(=O)c3ccno3)cc2)c(C#N)c2ccccc21` [Compound 755], the IC50 under setting [2] is < 0.5 µM.
Same read-out and setting: the value for `CCn1c(-c2ccc(NC(=O)c3snnc3C)cc2)c(C#N)c2ccccc21` [Compound 756] was < 0.5 µM.
Same read-out and setting: under `CCC(=O)Nc1ccc(-c2c(C#N)c3ccc(OC(C)C)cc3n2CC)cc1` [Compound 759] stands < 0.5 µM.
Same read-out and setting: the value for `CCn1c(-c2ccc(NC(=O)C3CCC3)cc2)c(C#N)c2ccc(OC(C)C)cc21` [Compound 760] was < 0.5 µM.
Turning to `CCn1c(-c2ccc(NC(=O)c3ccc4nonc4c3)cc2)c(C#N)c2cc(OC)ccc21` [Compound 765], under setting [3], the IC50 was 0.5 to 2 µM.
In the case of `CCS(=O)(=O)N(C(C)=O)c1ccc(-c2cc3ccc(OC)cc3n2C(=O)OC(C)(C)C)cc1` [Compound 769], the IC50 under setting [3] is > 2 µM.
As for `CCn1c(-c2cccc(N3CCNC3=O)c2)c(C#N)c2ccc(OC)cc21` [Compound 770], the IC50 under setting [3] is > 2 µM.
Same read-out and setting: under `CCCn1c(-c2ccc(N3CCCS3(=O)=O)cc2)c(C#N)c2ccc(OCCOC(C)=O)cc21` [Compound 775] stands 0.5 to 2 µM; under `CCOc1ccc2c(C#N)c(-c3ccc(N4CCNC4=O)cc3)n(CC)c2c1` [Compound 778], < 0.5 µM; under `CCCn1c(-c2cccc(N3CCCS3(=O)=O)c2)c(C#N)c2ccc(OC)cc21` [Compound 783], > 2 µM.
Still for that read-out and setting: the value for `CCn1c(N2CCC(NC(=O)OC(C)(C)C)CC2)c(C#N)c2ccc(C(F)(F)F)cc21` [Compound 786] was > 2 µM; that for `COC(=O)Nc1cccc(-c2c(C#N)c3ccc(OC)cc3n2Cc2ccccc2)c1` [Compound 787] was > 2 µM.
Consider `CCCCOC(=O)Nc1cccc(-c2c(C#N)c3ccc(OC)cc3n2Cc2ccccc2)c1` [Compound 788], for which the IC50 under setting [3] was > 2 µM.
As for `CCn1c(-c2ccc(NS(=O)(=O)C(C)C)cc2)c(C#N)c2cc(OC)ccc21` [Compound 790], the IC50 under setting [4] is < 0.5 µM.
Consider `CCn1c(-c2ccc(N)cc2)c(C#N)c2cc(O)ccc21` [Compound 797], for which the IC50 under setting [3] was 0.5 to 2 µM.
The same measure, in the same setting: under `CCn1c(-c2ccc(NC(=O)c3cc(C)on3)cc2)c(C#N)c2ccc(OC(C)C)cc21` [Compound 798] stands > 2 µM.
With `CCCC(=O)Nc1ccc(-c2c(C#N)c3ccc(OC)cc3n2CC)cc1` [Compound 799], under setting [4], the IC50 was < 0.5 µM.
For `CCn1c(-c2ccc(NC(=O)c3ccco3)cc2)c(C#N)c2ccc(OC)cc21` [Compound 803], the IC50 under setting [3] is > 2 µM.
Same read-out and setting: the value for `CCn1c(-c2ccc(NC(=O)c3cc(C)on3)cc2)c(C#N)c2ccc(OC)cc21` [Compound 804] was > 2 µM; that for `N#Cc1c(-c2ccc(N3CCCC3=O)cc2)n(CC2CC2)c2cc(OC(F)F)ccc12` [Compound 806] was 0.5 to 2 µM.
Still for that read-out and setting: under `CCCn1c(-c2ccc(N3CCCC3=O)cc2)c(C#N)c2ccc(OC(F)F)cc21` [Compound 808] stands 0.5 to 2 µM.
The same measure, in the same setting: under `CC(C)n1c(-c2ccc(N3CCCC3=O)cc2)c(C#N)c2ccc(OC(F)F)cc21` [Compound 809] stands 0.5 to 2 µM; under `N#Cc1c(-c2ccc(N3CCCC3=O)cc2)n(C2CCC2)c2cc(OC(F)F)ccc12` [Compound 810], 0.5 to 2 µM; under `N#Cc1c(-c2ccc(N)cc2)n(C2CCC2)c2cc(OC(F)F)ccc12` [Compound 811], > 2 µM.
In the case of `CCCS(=O)(=O)Nc1ccc(-c2c(C#N)c3ccc(OC(F)F)cc3n2C2CCC2)cc1` [Compound 812], the IC50 under setting [3] lay within 0.5 to 2 µM.
The same measure, in the same setting: the value for `N#Cc1c(-c2ccc(NS(=O)(=O)C3CC3)cc2)n(C2CCC2)c2cc(OC(F)F)ccc12` [Compound 813] was < 0.5 µM; that for `CCCNC(=O)Nc1cccc(-c2c(C#N)c3ccc(OC)cc3n2Cc2ccccc2)c1` [Compound 817] was > 2 µM.
`CCn1c(-c2cc(N3CCOC3=O)ccc2F)c(C#N)c2ccc(OC(C)C)cc21` [Compound 820]: the IC50 under setting [3] lay within 0.5 to 2 µM.
On the same count and under the same terms, the value for `CCn1c(-c2ccc(F)c(N3CCOC3=O)c2)c(C#N)c2ccc(OC(C)C)cc21` [Compound 821] was > 2 µM.
Same read-out and setting: under `COCCOC(=O)Nc1ccc(-c2c(C#N)c3ccc(OC(F)F)cc3n2C2CCC2)cc1` [Compound 823] stands > 2 µM; under `CCCn1c(-c2ccc(NC(=O)OC(C)C)cc2)c(C#N)c2ccc(OC(F)F)cc21` [Compound 824], > 2 µM.
On the same count and under the same terms, under `CCCn1c(-c2ccc(NC(=O)OCCOC)cc2)c(C#N)c2ccc(OC(F)F)cc21` [Compound 825] stands > 2 µM.
As for `CCCn1c(-c2ccc(NC(=O)OCCF)cc2)c(C#N)c2ccc(OC(F)F)cc21` [Compound 826], the IC50 under setting [3] was 0.5 to 2 µM.
Same read-out and setting: under `N#Cc1c(-c2ccc(N3CCCS3(=O)=O)cc2)[nH]c2cc(OC(F)(F)F)ccc12` [Compound 829] stands 0.5 to 2 µM.
On the same count and under the same terms, under `CCn1c(-c2ccc(OC(F)F)cc2)c(C#N)c2ccc(NS(=O)(=O)CC)cc21` [Compound 830] stands 0.5 to 2 µM; under `CCCS(=O)(=O)Nc1ccc2c(C#N)c(-c3ccc(OCC)cc3)n(CC)c2c1` [Compound 836], > 2 µM.
The same measure, in the same setting: under `CCOc1ccc(-c2c(C#N)c3ccc(NS(=O)(=O)C4CC4)cc3n2CC)cc1` [Compound 837] stands > 2 µM.
On to `CCn1c(-c2ccc(N(C)S(=O)(=O)C3CC3)cc2)c(C#N)c2ccc(OCCF)cc21` [Compound 840], for which the IC50 under setting [3] is > 2 µM.
`CCCS(=O)(=O)N1CCN(c2c(C#N)c3ccc(C(F)(F)F)cc3n2CC)CC1` [Compound 841]: under setting [3], the IC50 was > 2 µM.
Still for that read-out and setting: the value for `CCn1c(N2CCN(S(=O)(=O)c3ccccc3)CC2)c(C#N)c2ccc(C(F)(F)F)cc21` [Compound 843] was > 2 µM; that for `CCCn1c(-c2ccc(NC(=O)NC(C)C)cc2)c(C#N)c2ccc(OC)cc21` [Compound 846] was 0.5 to 2 µM; that for `CCCCNC(=O)Nc1ccc(-c2c(C#N)c3ccc(OC)cc3n2CCC)cc1` [Compound 847] was 0.5 to 2 µM.
